Measured values as given in paper PMC10045663, “Synthesis, In Vitro Biological Evaluation of Antiproliferative and Neuroprotective Effects and In Silico Studies of Novel 16E-Arylidene-5α,6α-epoxyepiandrosterone Derivatives” (Biomedicines, 2023).

Assays:
[1] = tested on: all cell lines (NHDF, PNT1A, N27, LNCaP, PC-3, MCF-7); experiment: MTT preliminary screening, all cell lines taken together; assay type: cell-based; conditions: 50 µM, 72 h
Protocol: (§1) LNCaP, PC-3, MCF-7, PNT1A, N27, and NHDF cells were obtained from the American Type Culture Collection (ATCC; Manassas, VA, USA) and were cultured in 75 cm^2 culture flasks at 37 °C in a humidified air incubator with 5% CO2. LNCaP, PC-3, PNT1A, and N27 cells, respectively, were cultured in RPMI 1640 medium (Sigma-Aldrich, Inc. St. Louis, MO, USA) with 10% fetal bovine serum (FBS; Sigma-Aldrich, Inc. St. Louis, MO, USA) and 1% of the antibiotic mixture of 10,000 U/mL penicillin G and […] streptomycin (Sp, Sigma-Aldrich, Inc. St. Louis, MO, USA). MCF-7 cells were cultured in DMEM medium (Sigma-Aldrich, Inc. St. Louis, MO, USA) supplemented with 10% fetal bovine serum (FBS; Sigma-Aldrich, Inc. St. Louis, MO, USA) and 1% antibiotic/antimycotic (10,000 U/mL penicillin G, […] streptomycin, and 25 µg/mL amphotericin B: Ab, Sigma-Aldrich, Inc. St. Louis, MO, USA). Finally, NHDF cells were cultured in RPMI 1640 medium supplemented with 10% FBS, 2 mM L-glutamine, 10 mM HEPES, 1 mM sodium pyruvate, and 1% of the antibiotic/antimycotic Ab, and these cells were used in passages 10th to 14th. For all cell types, the medium was renewed every 2 days until cells nearly reached the confluence state. When cells reach approximately 90–95% confluence, they are gently detached by trypsinization (trypsin-EDTA solution: 0.125 g/L of trypsin and 0.02 g/L of EDTA). Before each experiment, viable cells were counted in a Neubauer chamber by a trypan-blue exclusion assay and adequately diluted in the appropriate complete cell culture medium.
(§2) All tested compounds were dissolved in dimethyl sulfoxide (DMSO; Sigma-Aldrich, Inc. St. Louis, MO, USA) at a concentration of 10 mM and stored at 4 °C. From the mother-solutions, the diluted solutions of the compounds, in different concentrations, were prepared in the respective complete culture medium before each experiment.
(§3) After reaching a confluence state, cells were trypsinized and counted by the trypan-blue exclusion assay and then seeded with an initial density of 2 × 10^4 cells/mL in 96-well culture plates (Nunc, Apogent, Denmark) and left to adhere and grow for 48 h. Subsequently, the medium was removed, and the cells were treated with compound solutions (10 and 50 µM for preliminary studies and 0.01, 0.1, 1, 10, 50, and 100 µM for concentration-response studies) in complete culture medium for 72 h. 5-Fluorouracil (5-FU) was used as a positive control, and untreated cells were used as the negative control. Compounds leading to cell proliferation relative to control clearly below 50%, at 10 µM, or clearly below 25%, at 50 µM, in the screening studies were selected to concentration-response studies in tumoral cell lines. Each experiment was performed in quadruplicate and independently at least two times. The in vitro antiproliferative effects were evaluated by the MTT assay (Sigma-Aldrich, Inc. St. Louis, MO, USA). After the incubation period, the medium was removed, and 100 µL of phosphate buffer saline (PBS, NaCl 137 mM; KCl 2.7 mM; Na2HPO4 10 mM; and KH2PO4 1.8 mM in deionized water with a pH adjusted to 7.4) were used to wash the cells. Then, 100 µL of the MTT solution (5 mg/mL) was prepared in the appropriate serum-free medium and added to each well, followed by incubation for 4 h at 37 °C. Hereafter, the MTT containing medium was removed, and the formazan crystals were dissolved in DMSO. Then, the absorbance was measured at 570 nm using a xMarkTM microplate spectrophotometer from BIO-RAD Laboratories. Cell viability values were expressed as percentages relative to the negative control.

[2] = tested on: PNT1A (normal prostate cells); experiment: MTT cell proliferation assay, PNT1A cells; assay type: cell-based; conditions: 72 h, non-tumoral cells, read-out: Estimated IC50, PNT1A
Protocol: as §1, §2, §3

[3] = tested on: N27 (rat dopaminergic neuronal cells); experiment: MTT cell proliferation assay, N27 cells; assay type: cell-based; conditions: 72 h, non-tumoral cells, read-out: Estimated IC50, N27
Protocol: as §1, §2, §3

[4] = tested on: PC-3 cells (androgen-independent prostatic cancer); experiment: MTT cell proliferation assay, PC-3 cells; assay type: cell-based; conditions: 72 h; for IC50: MTT, tumoral cells, read-out: Estimated IC50, PC-3; for decrease on cell proliferation relative to the control: PC-3, 50 µM
Protocol: as §1, §2, §3

[5] = tested on: LNCaP cells (androgen-dependent prostatic cancer); experiment: MTT cell proliferation assay, LNCaP cells; assay type: cell-based; conditions: 72 h; for effect on LNCaP cell proliferation: 10 µM; for decrease in LNCaP cell proliferation: 50 µM; for IC50: MTT, tumoral cells, read-out: Estimated IC50, LNCaP
Protocol: as §1, §2, §3

[6] = tested on: MCF-7 cells (estrogen-responsive breast cancer cells); experiment: MTT cell proliferation assay, MCF-7 cells; assay type: cell-based; conditions: 72 h; for IC50: MTT, tumoral cells, read-out: Estimated IC50, MCF-7
Protocol: as §1, §2, §3

[7] = tested on: NHDF cells (normal human dermal fibroblasts); experiment: MTT cell proliferation assay, NHDF cells; assay type: cell-based; conditions: 72 h, non-tumoral cells, read-out: Estimated IC50, NHDF
Protocol: as §1, §2, §3

N27 cells [8] = experiment: Neuroprotection against 6-OHDA-induced toxicity (MTT); assay type: cell-based, rat; conditions: 10 and 50 µM together with 50 µM 6-OHDA, 24 h
Protocol: (§4) The immortalized rat mesencephalic dopaminergic cell line (N27 cells; a kind gift from Dr. Yoon-Seong Kim, Burnett School of Biomedical Sciences, University of Central Florida) was grown in Roswell Park Memorial Institute (RPMI) 1640 medium (Sigma-Aldrich) containing 2 g/L sodium bicarbonate, 10% fetal bovine serum (FBS; Millipore), and 1 mL/L of penicillin/streptomycin (GIBCO) in a humidified atmosphere of 5% CO2 at 37 °C. Cells were plated at a density of 0.31 × 10^5 cells per cm^2 in 96-well culture plates. In the MTT assay, N27 cells were incubated in the presence of several compounds with 50 μM of 6-OHDA. To assess cell viability, MTT reduction was performed as previously described (Section 2.3) with some modifications. Briefly, after 24 h of cell treatments, 0.5 mg/mL of MTT was added to cells for 4 h at 37 °C. Then, the resultant precipitate was dissolved in 10% SDS and quantified at a wavelength of 570 nm.

N27 cells [9] = experiment: N27 cell viability after 24 h (MTT), substance alone; assay type: cell-based, rat
Protocol: as §4, with “In the MTT assay, N27 cells were incubated in the presence of several compounds with 50 μM of 6-OHDA.” left out

| IC50 [5] | IC50 [6] | Molecule | relative cell proliferation [1] | IC50 [2] | IC50 [3] | IC50 [4] | effect on LNCaP cell proliferation [5] | decrease in LNCaP cell proliferation [5] | IC50 [7] | decrease on cell proliferation relative to the control [4] | cell proliferation relative to the control ([6]; MCF-7, 50 µM) | protection against 6-OHDA-induced neurotoxicity (N27 cells [8]) | effect on N27 cell viability (N27 cells [9]; 10 µM alone) | reduction in cell viability compared to the control (N27 cells [9]; 50 μM) |
| --- | --- | --- | --- | --- | --- | --- | --- | --- | --- | --- | --- | --- | --- | --- |
| – | – | C[C@]12CC[C@H]3[C@@H](C[C@@H]4O[C@@]45CC(O)CC[C@]35C)[C@@H]1C/C(=C\c1cccc(F)c1F)C2=O (stereo partly drawn) [Compound 24, (E)-16-(2,3-Difluorobenzylidene)-3-hydroxy-5α ,6α -epoxy-10,13-dimethyl-1,3,4,7,8,9,10,11,12,13,15,16-dodecahydro-2H-cyclopenta[α ]phenanthren-17(14H)-one] | – | 56.5 µM | 18.9 µM | – | – | – | 33.4 µM | – | – | – | – | – |
| – | – | CC12CCC3C(CC4OC45CC(O)CCC35C)C1CC(=Cc1cccs1)C2=O (stereo not drawn) [Compound 18, (E)-16-(Thiophen-2-ylmethylene)-3-hydroxy-5α ,6α -epoxy-10,13-dimethyl-1,3,4,7,8,9,10,11,12,13,15,16-dodecahydro-2H-cyclopenta[α ]phenanthren-17(14H)-one] | – | 29.6 µM | 12.6 µM | 37.6 µM | – | – | 29.7 µM | – | – | – | – | – |
| – | – | COc1ccc(C=C2CC3C4CC5OC56CC(O)CCC6(C)C4CCC3(C)C2=O)cc1 (stereo not drawn) [Compound 16, (E)-16-(4-Metoxybenzylidene)-3-hydroxy-5α ,6α -epoxy-10,13-dimethyl-1,3,4,7,8,9,10,11,12,13,15,16-dodecahydro-2H-cyclopenta[α ]phenanthren-17(14H)-one] | – | 54.5 µM | 33.2 µM | 20.1 µM | – | – | 39.3 µM | – | – | – | – | – |
| – | – | Cc1ccc(/C=C2\C[C@H]3[C@@H]4C[C@@H]5O[C@@]56CC(O)CC[C@]6(C)[C@H]4CC[C@]3(C)C2=O)o1 (stereo partly drawn) [Compound 21, (E)-16-[(5-Methylfuran-2-yl)methylene]-3-hydroxy-5α ,6α -epoxy-10,13-dimethyl-1,3,4,7,8,9,10,11,12,13,15,16-dodecahydro-2H-cyclopenta[α ]phenanthren-17(14H)-one] | – | 46.3 µM | 13.2 µM | – | – | – | 23.4 µM | – | – | – | – | – |
| 27.4 µM | 42.7 µM | (E)-16-Benzylidene-3-hydroxy-5α,6α-epoxy-10,13-dimethyl-1,3,4,7,8,9,10,11,12,13,15,16-dodecahydro-2H-cyclopenta[α]phenanthrene-17(14H)-one [Compound 15] | ≤ 50% | 33.1 µM | 9.21 µM | 17 µM | – | – | 39.5 µM | higher than 75% | – | – | – | – |
| 15 µM | 14.5 µM | (E)-16-(2,4-Dichlorobenzylidene)-3-hydroxy-5α ,6α -epoxy-10,13-dimethyl-1,3,4,7,8,9,10,11,12,13,15,16-dodecahydro-2H-cyclopenta[α ]phenanthren-17(14H)-one [Compound 22] | ≤ 50% | 14.4 µM | 16.8 µM | 44.5 µM | no relevant effects | higher than 75% | 15 µM | higher than 75% | ~0% | – | – | – |
| – | – | CC12CCC3C(CC4OC45CC(O)CCC35C)C1CCC2C(=O)C=Cc1ccccc1 (stereo not drawn) [cD, 21E-benzylidene-5α,6α-epoxipregnenolone, reference compound] | – | – | – | – | – | – | – | – | – | did not protect | did not affect cell viability | – |
| – | – | NCCc1cc(O)c(O)cc1O [Compound 6-OHDA, 6-hydroxydopamine, reference compound] | – | – | – | – | – | – | – | – | – | – | – | ~50% |
| 11.3 µM | 21.8 µM | (E)-16-[(5-Chlorothiophen-2-yl)methylene]-3-hydroxy-5α ,6α -epoxy-10,13-dimethyl-1,3,4,7,8,9,10,11,12,13,15,16-dodecahydro-2H-cyclopenta[α ]phenanthren-17(14H)-one [Compound 26] | ≤ 50% | 15.6 µM | 14.3 µM | 43.8 µM | no relevant effects | higher than 75% | 16.6 µM | higher than 75% | – | – | – | – |

| Molecule | IC50 [5] | IC50 [6] | relative cell proliferation [1] | IC50 [2] | IC50 [3] | IC50 [4] | effect on LNCaP cell proliferation [5] | decrease in LNCaP cell proliferation [5] | IC50 [7] | decrease on cell proliferation relative to the control [4] | cell proliferation relative to the control ([6]; MCF-7, 50 µM) | protection against 6-OHDA-induced neurotoxicity (N27 cells [8]) | effect on N27 cell viability (N27 cells [9]; 10 µM alone) | reduction in cell viability compared to the control (N27 cells [9]; 50 μM) |
| --- | --- | --- | --- | --- | --- | --- | --- | --- | --- | --- | --- | --- | --- | --- |
| Cc1ccc(C=C2CC3C4CC5OC56CC(O)CCC6(C)C4CCC3(C)C2=O)cc1 (stereo not drawn) [Compound 23, (E)-16-(4-Methylbenzylidene)-3-hydroxy-5α ,6α -epoxy-10,13-dimethyl-1,3,4,7,8,9,10,11,12,13,15,16-dodecahydro-2H-cyclopenta[α ]phenanthren-17(14H)-one] | 19.3 µM | 18.7 µM | ≤ 50% | 13.3 µM | 12.7 µM | 14 µM | no relevant effects | higher than 75% | 28.3 µM | – | – | – | – | – |
| CC12CCC3C(CC4OC45CC(O)CCC35C)C1CC(=Cc1ccc(Br)cc1)C2=O (stereo not drawn) [Compound 25, (E)-16-(4-Bromobenzylidene)-3-hydroxy-5α ,6α -epoxy-10,13-dimethyl-1,3,4,7,8,9,10,11,12,13,15,16-dodecahydro-2H-cyclopenta[α ]phenanthren-17(14H)-one] | 36.9 µM | 14.5 µM | ≤ 50% | 15.3 µM | 15.4 µM | 14.5 µM | no relevant effects | higher than 75% | 16 µM | higher than 75% | – | – | – | – |
